Reference: patent US20220204497A1, “NOVEL COMPOUND HAVING ANTICANCER ACTIVITY, AND METHOD FOR PRODUCING SAME” (MEDICINAL BIOCONVERGENCE RESEARCH CENTER, priority 2019, published 2022)

System: A549 cells
Experiment: Cell viability by MTT method in A549 cells
Assay type: cell-based
Design: concentration or dose not given beside the values
Details: 72 hours treatment

| SMILES | Cell Viability (% inhibition) (A549) [%] |
| --- | --- |
| Cc1ccc(S(=O)(=O)N[C@@H](CCC(=O)N2CCOCC2)C(=O)Nc2ccc(N3CCOCC3)cc2)cc1 [Compound 173, (S)-2-(4-Methylphenylsulfonamido)-5-morpholino-N-(4-morpholinophenyl)-5-oxopentanamide] | 0.1 ± 5.51 |
| Cc1ccc(S(=O)(=O)N[C@@H](CCC(=O)OCc2ccccc2)C(=O)Nc2ccc(N3CCOCC3)cc2)cc1 [Compound 141, (S)-Benzyl 4-(4-methylphenylsulfonamido)-5-(4-morpholinophenylamino)-5-oxopentanoate] | 40.15 ± 6.15 |
| Cc1ccc(S(=O)(=O)N[C@@H](Cc2c[nH]c3ccccc23)C(=O)Nc2nc(-c3ccc(N4CCOCC4)cc3)cs2)cc1 [Compound 164, (S)-3-(1-indol-3-yl)-2-(4-methylphenylsulfonamido)-N-(4-(4-morpholinophenyl)thiazol-2-yl)propanamide] | 88.05 ± 0.8 |
| Cc1ccc(S(=O)(=O)N[C@@H](CC(C)C)C(=O)Nc2ccc(N3CCS(=O)(=O)CC3)cc2)cc1 [Compound 15, (S)—N-(4-(1,1-dioxidothiomorpholino)phenyl)-4-methyl-2-(4-methylphenylsulfonamido)pentanamide] | 4.86 ± 8.75 |
| Cc1ccc(S(=O)(=O)N[C@@H](CCCCNC(=O)c2ccc(C(F)(F)F)cn2)C(=O)Nc2ccc(N3CCOCC3)cc2)cc1 [Compound 140, (S)—N-(5-(4-methylphenylsulfonamido)-6-(4-morpholinophenylamino)-6-oxohexyl)-5-(trifluoromethyl)picolinamide] | 86.68 ± 1.25 |
| Cc1ccc(S(=O)(=O)N[C@@H](CCC(=O)Nc2ccc(F)cc2)C(=O)Nc2ccc(N3CCOCC3)cc2)cc1 [Compound 174, (S)—N^5-(4-fluorophenyl)-2-(4-methylphenylsulfonamido)-N^1-(4-morpholinophenyl)pentanediamide] | 10.8 ± 2.26 |
| COc1ccc(-c2csc(NC(=O)[C@H](Cc3c[nH]c4ccccc34)NS(=O)(=O)c3ccc(Br)cc3)n2)cc1 [Compound 62, (S)-2-(4-Bromophenylsulfonamido)-3-(1H-indol-3-yl)-N-(4-(4-methoxyphenyl)thiazol-2-yl)propanamide] | 90.17 ± 0.96 |
| COc1ccc(-c2csc(NC(=O)[C@H](CNC(=O)c3ccccc3)NS(=O)(=O)c3ccc(C)cc3)n2)cc1 [Compound 230, (S)—N-(3-((4-(4-methoxyphenyl)thiazol-2-yl)amino)-2-(4-methylphenylsulfonamido)-3-oxopropyl)benzamide] | 71.56 ± 1.67 |
| Cc1ccccc1S(=O)(=O)N[C@@H](Cc1c[nH]c2ccccc12)C(=O)Nc1ccc(N2CCOCC2)cc1 [Compound 64, (S)-3-(1H-indol-3-yl)-2-(2-methylphenylsulfonamido)-N-(4-morpholinophenyl)propanamide] | 51.75 ± 1.56 |
| Cc1ccc(S(=O)(=O)N[C@@H](CCCCNC(=O)OCc2ccccc2)C(=O)Nc2ccc(N3CCOCC3)cc2)cc1 [Compound 168, (S)-Benzyl 5-(4-methylphenylsulfonamido)-6-(4-morpholinophenylamino)-6-oxohexylcarbamate] | 84.11 ± 1.25 |
| Cc1ccc(S(=O)(=O)N[C@@H](Cc2c[nH]c3ccccc23)C(=O)NCCCc2ccccc2)cc1 [Compound 206, (S)-3-(1H-indol-3-yl)-2-(4-methylphenylsulfonamido)-N-(3-phenylpropyl)propanamide] | 67.48 ± 2.35 |
| CSCC[C@H](NS(=O)(=O)c1ccc(C)cc1)C(=O)Nc1ccc(N2CCOCC2)cc1 [Compound 45, (S)-2-(4-methylphenylsulfonamido)-4-(methylthio)-N-(4-morpholinophenyl)butanamide] | 12.97 ± 1.24 |
| Cc1ccc(S(=O)(=O)N[C@@H](Cc2ccccc2)C(=O)Nc2ccc(N3CCOCC3)cc2)cc1 [Compound 48, (S)-2-(4-methylphenylsulfonamido)-N-(4-morpholinophenyl)-3-phenylpropanamide] | 45.68 ± 2.92 |
| Cc1ccc(C(=O)N[C@@H](Cc2c[nH]c3ccccc23)C(=O)OCc2ccccc2)cc1 [Compound 216, (S)-Benzyl 3-(1H-indol-3-yl)-2-(4-methylbenzamido)propanoate] | 69.96 ± 2.46 |
| COC[C@H](C)Oc1ccc(-c2csc(NC(=O)[C@H](CC(C)C)NS(=O)(=O)c3ccc(C)cc3)n2)cc1 [Compound 98, (S)—N-(4-(4((S)-1-methoxypropan-2-yloxy)phenyl)thiazol-2-yl)-4-methyl-2-(4-methylphenylsulfonamido)pentanamide] | 76.55 ± 1.52 |
| O=C(NCCc1c[nH]c2ccccc12)[C@H](Cc1c[nH]c2ccccc12)NS(=O)(=O)c1ccc(Br)cc1 [Compound 209, (S)—N-(2-(1H-indol-3-yl)ethyl)-2-(4-bromophenylsulfonamido)-3-(1H-indol-3-yl)propanamide] | 89.27 ± 0.77 |

| SMILES | Cell Viability (% inhibition) (A549) [%] |
| --- | --- |
| CC(C)C[C@H](NS(=O)(=O)c1ccc(Br)cc1)C(=O)Nc1ccc(N2CCOCC2)cc1 [Compound 22, (S)-2-(4-bromophenylsulfonamido)-4-methyl-N-(4-morpholinophenyl)pentanamide] | 39.56 ± 5.42 |
| C[C@]12C[C@@H]3C[C@](C)(C1)C[C@@](NC(=O)[C@H](Cc1c[nH]c4ccccc14)NS(=O)(=O)c1ccc(Br)cc1)(C3)C2 [Compound 214, (S)-2-(4-Bromophenylsulfonamido)-N-((1r,3R,5S,7S)-3,5-dimethyladamantan-1-yl)-3-(1H-indol-3-yl)propanamide] | 86.93 ± 0.26 |
| COc1ccc(-c2csc(NC(=O)[C@H](CNc3nc4ccccc4o3)NS(=O)(=O)c3ccc(C)cc3)n2)cc1 [Compound 229, (S)-3-(Benzo[d]oxazol-2-ylamino)-N-(4-(4-methoxyphenyl)thiazol-2-yl)-2-(4-methylphenylsulfonamido)propanamide] | 74.91 ± 2.05 |
| CCCCCCCCCCCC(=O)NNC(=O)[C@H](Cc1c[nH]c2ccccc12)NS(=O)(=O)c1ccc(Br)cc1 [Compound 194, (S)-4-Bromo-N-(1-(2-dodecanoylhydrazinyl)-3-(1H-indol-3-yl)-1-oxopropan-2-yl)benzenesulfonamide] | 86.99 ± 0.6 |
| Cc1ccc(S(=O)(=O)N[C@@H](CC(C)C)C(=O)Nc2nc(-c3ccc(N4CCOCC4)cc3)cs2)cc1 [Compound 99, (S)-4-Methyl-2-(4-methylphenylsulfonamido)-N-(4-(4-morpholinophenyl)thiazol-2-yl)pentanamide] | 73.11 ± 3.83 |
| COC(=O)c1ccc(-c2csc(NC(=O)[C@H](CC(C)C)NS(=O)(=O)c3ccc(C)cc3)n2)cc1 [Compound 100, (S)-Methyl 4-(2-(4-methyl-2-(4-methylphenylsulfonamido)pentanamido)thiazol-4-yl)benzoate] | 79.24 ± 1 |
| CC(C)C[C@H](NS(=O)(=O)c1ccc(F)cc1)C(=O)Nc1ccc(N2CCOCC2)cc1 [Compound 21, (S)-2-(4-fluorophenylsulfonamido)-4-methyl-N-(4-morpholinophenyl)pentanamide] | 33.04 |
| Cc1ccc(S(=O)(=O)N[C@@H](Cc2c[nH]c3ccccc23)C(=O)NNC(=O)c2ccc(N3CCOCC3)cc2)cc1 [Compound 163, (S)—N-(3-(1H-indol-3-yl)-1-(2-(4-morpholinobenzoyl)hydrazinyl)-1-oxopropan-2-yl)-4-methylbenzenesulfonamide] | 18.63 ± 9.48 |
| COc1ccc(-c2csc(NC(=O)[C@H](Cc3c[nH]c4ccccc34)NS(=O)(=O)c3ccc(Br)cc3)n2)c(OC)c1 [Compound 108, (S)-2-(4-Bromophenylsulfonamido)-N-(4-(2,4-dimethoxyphenyl)thiazol-2-yl)-3-(1H-indol-3-yl)propanamide] | 9.05 ± 7.51 |
| Cc1ccc(S(=O)(=O)N[C@@H](CCC(=O)Nc2ccc([N+](=O)[O-])cc2)C(=O)Nc2ccc(N3CCOCC3)cc2)cc1 [Compound 167, (S)-2-(4-Methylphenylsulfonamido)-N^1-(morpholinophenyl)-N^5-(4-nitrophenyl)pentanediamide] | 85.33 ± 1.28 |
| Cc1ccc(S(=O)(=O)N[C@@H](Cc2c[nH]c3ccccc23)C(=O)NCCc2ccc(F)cc2)cc1 [Compound 207, (S)—N-(4-fluorophenethyl)-3-(1H-indol-3-yl)-2-(4-methylphenylsulfonamido)propanamide] | 64.02 ± 2.15 |
| Cc1ccc(S(=O)(=O)N[C@@H](Cc2c[nH]c3ccccc23)C(=O)Nc2nc(-c3ccc(C(F)(F)F)cc3)cs2)cc1 [Compound 208, (S)-3-(1H-indol-3-yl)-2-(4-methylphenylsulfonamido)-N-(4-(4-(trifluoromethyl)phenyl)thiazol-2-yl)propanamide] | 82.89 ± 1.06 |
| COC(=O)c1ccc(-c2csc(NC(=O)[C@H](Cc3c[nH]c4ccccc34)NS(=O)(=O)c3ccc(C)cc3)n2)cc1 [Compound 227, (S)-Methyl 4-(2-(3-(1H-indol-3-yl)-2-(4-methylphenylsulfonamido)propanamido)thiazol-4-yl)benzoate] | 84.63 ± 0.51 |
| Cc1ccc(S(=O)(=O)N[C@@H](CC(C)C)C(=O)Nc2ccc(N3CCCCC3)cc2)cc1 [Compound 7, (S)-4-methyl-2-(4-methylphenylsulfonamido)-N-(4-(piperidin-1-yl)phenyl)pentanamide] | 23.48 |
| Cc1ccc(S(=O)(=O)N[C@@H](C)C(=O)Nc2ccc(N3CCOCC3)cc2)cc1 [Compound 44, (S)-2-(4-methylphenylsulfonamido)-N-(4-morpholinophenyl)propanamide] | 14.05 ± 4.05 |
| Cc1ccc(S(=O)(=O)N[C@@H](CC(C)C)C(=O)Nc2ccc(N3CCC(C)CC3)cc2)cc1 [Compound 8, (S)-4-methyl-2-(4-methylphenylsulfonamido)-N-(4-(4-methylpiperidin-1-yl)phenyl) pentanamide] | 24.89 |
